Where a name gives a salt, the structure may show the parent alone.
Legend:
[1] = tested on: interferon regulatory factor 3 (IRF3) in HCT116-Dual cells; experiment: HCT116-Dual Cell Luciferase Assay (ISG54 promoter, IRF3 activity); type: cell-based; settings: ENPP1 inhibitor usually 10 μM plus cGAMP 10 μM, 48 hours, Lucia luciferase
From the text: HCT116-Dual™ cells express genes encoding luciferase secreted under the control of the interferon-stimulated gene 54 (ISG54) promoter along with five interferon-stimulated response elements. The HCT116-Dual™ cell line was used to measure and monitor the activity of interferon regulatory factor 3 (IRF3), which induces production of type I interferon and relates to downstream signaling, and Lucia secreted in the culture medium was used to generate luminescence in a luciferase reaction.
HCT116-Dual™ cells were cultured at 2×10^4 cells/well (93.4 μL) in a 96-well plate for one day in a DMEM medium containing 10% FBS and 25 mM HEPES (pH 7.2-7.5). The cells were treated with 3.3 μL of ENPP1 inhibitor (usually 10 μM) and then 3.3 μL of cGAMP (10 μM) to set the final volume to 100 μL (The final fraction of DMSO was 0.1%). The cells treated with ENPP1 inhibitor and cGAMP were cultured at 37° C. for 48 hours and 50 μL of Quanti-Luc reaction solution was added to 20 μL of cell culture medium to measure luciferase activity. The increase in interferon regulatory factor 3 (IRF3) by the compound compared to cGAMP was determined as fold.

[2] = molecular target: T1, human recombinant ENPP1 enzymes (Homo sapiens, UniProt P22413); experiment: ENPP1 Enzyme Assay with cGAMP Substrate (AMP-Glo); type: biochemical; settings: human recombinant ENPP1 3 ng/reaction, cGAMP 5 μM, 37° C. 90 minutes, average of two or more tests; read-out: Enzymatic activity IC50
T1 construct: purchased R & D systems
T1 sequence (P22413 1-925): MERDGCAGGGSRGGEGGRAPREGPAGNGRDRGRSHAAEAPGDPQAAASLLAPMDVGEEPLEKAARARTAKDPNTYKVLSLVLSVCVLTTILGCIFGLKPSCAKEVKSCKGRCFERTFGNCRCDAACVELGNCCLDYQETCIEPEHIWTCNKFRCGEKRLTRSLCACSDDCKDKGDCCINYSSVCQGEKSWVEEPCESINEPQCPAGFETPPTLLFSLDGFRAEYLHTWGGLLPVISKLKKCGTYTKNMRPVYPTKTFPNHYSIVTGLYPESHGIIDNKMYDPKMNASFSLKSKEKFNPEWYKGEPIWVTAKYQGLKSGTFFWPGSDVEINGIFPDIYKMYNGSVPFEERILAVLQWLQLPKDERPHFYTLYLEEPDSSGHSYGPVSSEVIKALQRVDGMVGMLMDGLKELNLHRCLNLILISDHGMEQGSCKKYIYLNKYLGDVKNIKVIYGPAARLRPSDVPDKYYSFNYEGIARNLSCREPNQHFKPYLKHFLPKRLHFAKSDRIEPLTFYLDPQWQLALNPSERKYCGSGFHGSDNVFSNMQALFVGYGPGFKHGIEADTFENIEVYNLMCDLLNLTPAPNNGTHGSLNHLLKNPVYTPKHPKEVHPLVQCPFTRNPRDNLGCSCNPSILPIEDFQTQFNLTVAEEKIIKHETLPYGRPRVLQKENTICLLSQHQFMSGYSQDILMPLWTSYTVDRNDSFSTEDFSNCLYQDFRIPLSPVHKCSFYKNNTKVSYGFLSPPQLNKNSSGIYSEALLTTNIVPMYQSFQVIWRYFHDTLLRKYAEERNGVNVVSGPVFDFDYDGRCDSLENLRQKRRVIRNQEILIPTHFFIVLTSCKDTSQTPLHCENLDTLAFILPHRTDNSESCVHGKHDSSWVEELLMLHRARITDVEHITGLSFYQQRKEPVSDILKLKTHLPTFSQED
Method: ENPP1 hydrolyzes nucleotides or nucleotide derivatives to produce nucleoside-5′-monophosphate and pyrophosphate. In addition, ENPP1 hydrolyzes 2′,3′-cGAMP to produce 5′-adenosine monophosphate (AMP) and 5′-guanosine monophosphate (GMP). AMP produced from the reaction is measured using the AMP-Glo® kit (Promega). The AMP-Glo® kit contains two reagents. The first reagent terminates the AMP-producing enzymatic reaction, removes ATP and converts the produced AMP into ADP. The second reagent converts ADP to ATP which is used to generate luminescence in the luciferase reaction. The amount of luminescence measured is proportional to the amount of AMP produced by ENPP1.
The final reaction mixture contains 50 mM Tris (pH 8.5) buffer, 250 mM NaCl, 0.5 mM CaCl2), 1 μM ZnCl2, 5% glycerol and 1% DMSO. Serially diluted ENPP1 inhibitors (typically in the range of 10 μM to 0.5 nM) were pre-stored with human recombinant ENPP1 enzymes (R & D systems) at 3 ng/reaction and room temperature (RT) for 5 to 10 minutes. The reaction was initiated by addition of cGAMP (at a final concentration of 5 μM) and reacted at 37° C. for 90 minutes. At the end of the reaction, 10 μl of the AMP-Glo first reagent was added to stop the reaction and the result was stored at room temperature for 1 hour. After storage, 20 μl of an AMP detection solution (a mixture of AMP-Glo II reagent and Kinase-Glo at a ratio of 1:100) was added and stored at room temperature for 1 hour. Luminescence signals were measured using a Victor® plate reader (Perkin Elmer). The maximal activity control (containing enzymes and substrates in the presence of 1% DMSO; MAX) and the minimal activity control (containing substrates and 1% DMSO; MIN) were evaluated simultaneously. In each experiment, serially diluted reference ENPP1 inhibitors were tested as well. IC50, indicating % residual activity versus compound concentration was determined by fitting inhibition curves using the 3-parameter analysis of GraphPad Prism® software. Serially diluted samples of one compound were tested two or more times and an average IC50 of each compound was calculated.

| Compound | Cellular activity: increase in IRF3 by the compound compared to cGAMP, as fold [1] | IC50 [2] [nM] |
| --- | --- | --- |
| Cl.Nc1ccc(F)c(-c2ccnc3[nH]c(=O)ccc23)c1 [Example 8] | B (1< Fold <2) | – |
| Cl.O=c1ccc2c(-c3ccc(CNC4CC4)cc3F)ccnc2[nH]1 [Example 22, 5-(4-((cyclopropylamino)methyl)-2-fluorophenyl)-1,8-naphthyridin-2(1H)-one hydrochloride] | B (1< Fold <2) | 1000 to 10000 |
| CN(CCc1cccc(Nc2ccnc3[nH]c(=O)ccc23)c1)S(N)(=O)=O [Example 93, N-methyl-N-(3-((7-oxo-7,8-dihydro-1,8-naphthyridin-4-yl)amino)phenethyl)sulfamide dihydrochloride] | B (1< Fold <2) | < 1000 |
| 5-(7-oxo-5,6,7,8-tetrahydro-1,8-naphthyridin-4-yl)isoindoline-2-sulfamide hydrochloride [Example 143] | B (1< Fold <2) | – |
| NS(=O)(=O)NCc1ccc(Nc2ccnc3[nH]c(=O)ccc23)c(Cl)c1 [Example 100, N-(3-chloro-4-((7-oxo-7,8-dihydro-1,8-naphthyridin-4-yl)amino)benzyl)sulfamide dihydrochloride] | – | 1000 to 10000 |
| CN(Cc1ccc(-c2ccnc3[nH]c(=O)ccc23)cc1)S(N)(=O)=O [Example 50, N-methyl-N-(4-(7-oxo-7,8-dihydro-1,8-naphthyridin-4-yl)benzyl)sulfamide hydrochloride] | – | < 1000 |
| NS(=O)(=O)NCc1ccc(-c2ccnc3[nH]c(=O)ccc23)cc1F [Example 41, N-(2-fluoro-4-(7-oxo-7,8-dihydro-1,8-naphthyridin-4-yl)benzyl)sulfamide] | B (1< Fold <2) | – |
| CCN(Cc1ccc(-c2ccnc3[nH]c(=O)ccc23)cc1)S(N)(=O)=O [Example 51, N-ethyl-N-(4-(7-oxo-7,8-dihydro-1,8-naphthyridin-4-yl)benzyl)sulfamide hydrochloride] | – | < 1000 |
| CN[C@H](C)c1ccc(-c2ccnc3[nH]c(=O)ccc23)cc1 [Example 17, (R)-5-(4-(1-(methylaminoethyl)phenyl)-1,8-naphthyridin-2(1H)-one hydrochloride] | – | 1000 to 10000 |
| CN(c1ccc2c(c1)CN(S(N)(=O)=O)CC2)c1ccnc2[nH]c(=O)ccc12 [Example 108, (7-(methyl(7-oxo-7,8-dihydro-1,8-naphthyridin-4-yl)amino)-3,4-dihydroisoquinolin-2(1H)-yl)sulfamide dihydrochloride] | – | > 10000 |
| CS(=O)(=O)NCc1cccc(-c2ccnc3c2CCC(=O)N3)c1 [Example 146, N-(3-(7-oxo-5,6,7,8-tetrahydro-1,8-naphthyridin-4-yl)benzyl)methanesulfonamide] | – | 1000 to 10000 |
| Nc1cccc(-c2ccnc3c2CCC(=O)N3)c1 [Example 131, 5-(3-(aminophenyl)-3,4-dihydro-1,8-naphthyridin-2(1H)-one hydrochloride] | – | 1000 to 10000 |
| CC(C)(C)OC(=O)NCc1ccc(-c2ccnc3[nH]c(=O)ccc23)cc1 [Example 3, tert-butyl(4-(7-oxo-7,8-dihydro-1,8-naphthyridin-4-yl)benzyl)carbamate] | – | 1000 to 10000 |
| NS(=O)(=O)N1CCCc2ccc(Nc3ccnc4[nH]c(=O)ccc34)cc2C1 [Example 103, (8-((7-oxo-7,8-dihydro-1,8-naphthyridin-4-yl)amino)-1,3,4,5-tetrahydro-2 (1H)-benzo[c]azepin-2-yl)sulfamide dihydrochloride] | – | 1000 to 10000 |
| NS(=O)(=O)N1CCc2cc(Nc3ccnc4[nH]c(=O)ccc34)ccc2C1 [Example 104, dihydrochloride] | – | 1000 to 10000 |
| O=c1ccc2c(-c3ccc4c(c3)CNC4)ccnc2[nH]1 [Example 26, 5-(isoindolin-5-yl)-1,8-naphthyridin-2(1H)-one hydrochloride] | – | < 1000 |
| NS(=O)(=O)Nc1cccc(Nc2ccnc3[nH]c(=O)ccc23)c1 [Example 88, N-(3-((7-oxo-7,8-dihydro-1,8-naphthyridin-4-yl)amino)phenyl)sulfamide dihydrochloride] | – | < 1000 |

— patent US20240140944A1, “NOVEL NAPHTHYRIDINONE DERIVATIVE HAVING INHIBITORY ACTIVITY AGAINST ECTONUCLEOTIDE PYROPHOSPHATASE-PHOSPHODIESTERASE AND USE THEREOF” (TXINNO BIOSCIENCE INC., priority 2020, published 2024)
